Measurements reported in the supplement of paper PMC10307832.

Experiments:
Assay in all cases: relative viability (nuclei count vs DMSO), 5 days (fraction); higher = more cells survive
BI-D1870 + Tozasertib = compound: CC(C)CCN1c2nc(Nc3cc(F)c(O)c(F)c3)ncc2N(C)C(=O)C1C [BI-D1870] + Cc1cc(Nc2cc(N3CCN(C)CC3)nc(Sc3ccc(NC(=O)C4CC4)cc3)n2)n[nH]1 [Tozasertib] (partner 0.1 µM)
In short: (§1)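 Lung cancer cell lines were seeded in 1536-well plates and dosed by pin tool the next day, with either a single drug or a fixed anchor-drug dose combined with five library-drug doses (not always all listed) spaced in √10 steps. Five days later, one step fixed the cells and stained their nuclei (final 0.05% Triton X-100, 1% formaldehyde, 1 ug/ml Hoechst), and nuclei were counted on 4× images. Relative viability is the nuclei count in treated wells divided by the count in vehicle wells, and each value is the median of duplicate plates.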

Zebularine + Navitoclax = compound: O=c1ncccn1[C@@H]1O[C@H](CO)[C@@H](O)[C@H]1O [Zebularine] + CC1(C)CCC(c2ccc(Cl)cc2)=C(CN2CCN(c3ccc(C(=O)NS(=O)(=O)c4ccc(N[C@H](CCN5CCOCC5)CSc5ccccc5)c(S(=O)(=O)C(F)(F)F)c4)cc3)CC2)C1 [Navitoclax] (partner 0.5 µM)
In short: as §1

Zebularine + Crizotinib = compound: O=c1ncccn1[C@@H]1O[C@H](CO)[C@@H](O)[C@H]1O [Zebularine] + C[C@@H](Oc1cc(-c2cnn(C3CCNCC3)c2)cnc1N)c1c(Cl)ccc(F)c1Cl [Crizotinib] (partner 1 µM)
In short: as §1

Zebularine + Pemetrexed = compound: O=c1ncccn1[C@@H]1O[C@H](CO)[C@@H](O)[C@H]1O [Zebularine] + Nc1nc2[nH]cc(CCc3ccc(C(=O)N[C@@H](CCC(=O)O)C(=O)O)cc3)c2c(=O)[nH]1 [Pemetrexed] (partner 0.2 µM)
In short: as §1

Cell Line	relative viability (BI-D1870 + Tozasertib; first compound 0.04 µM)	relative viability (BI-D1870 + Tozasertib; first compound 0.1265 µM)	relative viability (BI-D1870 + Tozasertib; first compound 0.4 µM)	relative viability (BI-D1870 + Tozasertib; first compound 1.265 µM)	relative viability (BI-D1870 + Tozasertib; first compound 4 µM)	relative viability (Zebularine + Navitoclax; first compound 1 µM)	relative viability (Zebularine + Navitoclax; first compound 3.162 µM)	relative viability (Zebularine + Navitoclax; first compound 10 µM)	relative viability (Zebularine + Navitoclax; first compound 31.62 µM)	relative viability (Zebularine + Navitoclax; first compound 100 µM)	relative viability (Zebularine + Crizotinib; first compound 1 µM)	relative viability (Zebularine + Crizotinib; first compound 3.162 µM)	relative viability (Zebularine + Crizotinib; first compound 10 µM)	relative viability (Zebularine + Crizotinib; first compound 31.62 µM)	relative viability (Zebularine + Crizotinib; first compound 100 µM)	relative viability (Zebularine + Pemetrexed; first compound 1 µM)	relative viability (Zebularine + Pemetrexed; first compound 3.162 µM)	relative viability (Zebularine + Pemetrexed; first compound 10 µM)	relative viability (Zebularine + Pemetrexed; first compound 31.62 µM)	relative viability (Zebularine + Pemetrexed; first compound 100 µM)
HOP-62	0.371	0.371	0.407	0.39	0.301	1.11	1.01	0.424	0.217	0.197	0.923	0.245	0.601	0.209	0.129	0.326	0.316	0.239	0.186	0.139
CAL-12T	0.324	0.317	0.185	0.261	0.194	1.53	1.32	–	1.28	0.918	0.657	0.596	–	0.719	0.574	1.43	1.1	0.914	1.18	0.47
NCI-H520	0.508	0.441	0.44	0.358	0.36	1.16	0.994	0.442	0.427	0.294	0.784	0.717	0.429	0.372	0.261	0.687	0.588	0.374	0.239	0.215
NCI-H1755	0.59	0.551	0.518	0.513	0.531	1.14	1.04	0.773	1.01	0.444	1.03	0.872	0.612	0.864	0.466	0.365	0.37	0.438	0.638	0.397
NCI-H2023	0.308	0.265	0.253	0.227	0.164	1.14	1.04	0.851	0.924	0.247	0.807	0.569	0.611	0.389	0.201	0.232	0.2	0.138	0.18	0.149
NCI-H2009	0.826	0.723	0.639	0.516	0.321	1.12	1.13	0.951	0.876	0.358	1.07	0.962	0.817	0.681	0.311	1.12	0.962	0.767	0.675	0.211
